Source: the NIST ThermoML archive (doi:10.1016/j.jct.2012.04.029)
± gives the expanded uncertainty stated by the source.

Settings: Liquid, Ebulliometric method (Recirculating still)

COCC(C)O (stereo not drawn) [1-methoxy-2-propanol]
vapor or sublimation pressure (342.3 K): 15 ± 0.3 kPa | vapor or sublimation pressure (352.5 K): 23.5 ± 0.4 kPa | vapor or sublimation pressure (360.1 K): 32 ± 0.4 kPa | vapor or sublimation pressure (367.4 K): 42.1 ± 0.4 kPa | vapor or sublimation pressure (371.6 K): 49.1 ± 0.5 kPa | vapor or sublimation pressure (376 K): 57.6 ± 0.5 kPa | vapor or sublimation pressure (380 K): 66.1 ± 0.5 kPa | vapor or sublimation pressure (383.5 K): 74.6 ± 0.6 kPa | vapor or sublimation pressure (386.9 K): 83.3 ± 0.6 kPa | vapor or sublimation pressure (390.1 K): 92.6 ± 0.6 kPa | vapor or sublimation pressure (392.8 K): 99.9 ± 0.7 kPa | vapor or sublimation pressure (397.9 K): 116.9 ± 0.8 kPa | vapor or sublimation pressure (400 K): 125.5 ± 0.9 kPa | vapor or sublimation pressure (402.2 K): 134 ± 0.9 kPa | vapor or sublimation pressure (404.3 K): 142.5 ± 0.9 kPa | vapor or sublimation pressure (406.3 K): 151 ± 0.9 kPa | vapor or sublimation pressure (408.2 K): 159.5 ± 1 kPa | vapor or sublimation pressure (410 K): 168 ± 1 kPa | vapor or sublimation pressure (411.8 K): 176.5 ± 1 kPa

COCCO [2-methoxyethan-1-ol]
vapor or sublimation pressure (346.4 K): 15 ± 0.3 kPa | vapor or sublimation pressure (356.9 K): 23.5 ± 0.4 kPa | vapor or sublimation pressure (364.7 K): 32 ± 0.4 kPa | vapor or sublimation pressure (376 K): 49 ± 0.4 kPa | vapor or sublimation pressure (380.6 K): 57.5 ± 0.5 kPa | vapor or sublimation pressure (384.5 K): 66 ± 0.5 kPa | vapor or sublimation pressure (388.1 K): 74.5 ± 0.6 kPa | vapor or sublimation pressure (391.3 K): 83 ± 0.6 kPa | vapor or sublimation pressure (394.4 K): 91.5 ± 0.7 kPa | vapor or sublimation pressure (397.2 K): 100 ± 0.7 kPa | vapor or sublimation pressure (400.1 K): 108.5 ± 0.7 kPa | vapor or sublimation pressure (402.6 K): 117 ± 0.8 kPa | vapor or sublimation pressure (404.9 K): 125.5 ± 0.8 kPa | vapor or sublimation pressure (407 K): 134 ± 0.9 kPa | vapor or sublimation pressure (409.1 K): 142.5 ± 0.9 kPa | vapor or sublimation pressure (411.1 K): 151 ± 0.9 kPa | vapor or sublimation pressure (412.9 K): 159.5 ± 1 kPa | vapor or sublimation pressure (414.7 K): 168 ± 1 kPa | vapor or sublimation pressure (416.6 K): 176.5 ± 0.9 kPa
